Assays:
[1] = molecular target: BMP-2-inducible protein kinase (Homo sapiens) (UniProt Q9NSY1); test: Selectivity interaction (KINOMEscan (DiscoverX)) EUB0001868a BMP2K; details: at 1 µM
[2] = molecular target: Epidermal growth factor receptor (Homo sapiens, UniProt P00533); test: Selectivity interaction (Enzyme panel (AstraZeneca, AlphaScreen, functional assay)) EUB0000621a EGFR
[3] = tested on: T1, Receptor-type tyrosine-protein kinase FLT3 (Homo sapiens), P36888 [D835Y]; test: (§1) Selectivity interaction (KinomeScan (DiscoverX)) EUB0000311b FLT3; details: at 1 µM
T1 sequence (whole entry): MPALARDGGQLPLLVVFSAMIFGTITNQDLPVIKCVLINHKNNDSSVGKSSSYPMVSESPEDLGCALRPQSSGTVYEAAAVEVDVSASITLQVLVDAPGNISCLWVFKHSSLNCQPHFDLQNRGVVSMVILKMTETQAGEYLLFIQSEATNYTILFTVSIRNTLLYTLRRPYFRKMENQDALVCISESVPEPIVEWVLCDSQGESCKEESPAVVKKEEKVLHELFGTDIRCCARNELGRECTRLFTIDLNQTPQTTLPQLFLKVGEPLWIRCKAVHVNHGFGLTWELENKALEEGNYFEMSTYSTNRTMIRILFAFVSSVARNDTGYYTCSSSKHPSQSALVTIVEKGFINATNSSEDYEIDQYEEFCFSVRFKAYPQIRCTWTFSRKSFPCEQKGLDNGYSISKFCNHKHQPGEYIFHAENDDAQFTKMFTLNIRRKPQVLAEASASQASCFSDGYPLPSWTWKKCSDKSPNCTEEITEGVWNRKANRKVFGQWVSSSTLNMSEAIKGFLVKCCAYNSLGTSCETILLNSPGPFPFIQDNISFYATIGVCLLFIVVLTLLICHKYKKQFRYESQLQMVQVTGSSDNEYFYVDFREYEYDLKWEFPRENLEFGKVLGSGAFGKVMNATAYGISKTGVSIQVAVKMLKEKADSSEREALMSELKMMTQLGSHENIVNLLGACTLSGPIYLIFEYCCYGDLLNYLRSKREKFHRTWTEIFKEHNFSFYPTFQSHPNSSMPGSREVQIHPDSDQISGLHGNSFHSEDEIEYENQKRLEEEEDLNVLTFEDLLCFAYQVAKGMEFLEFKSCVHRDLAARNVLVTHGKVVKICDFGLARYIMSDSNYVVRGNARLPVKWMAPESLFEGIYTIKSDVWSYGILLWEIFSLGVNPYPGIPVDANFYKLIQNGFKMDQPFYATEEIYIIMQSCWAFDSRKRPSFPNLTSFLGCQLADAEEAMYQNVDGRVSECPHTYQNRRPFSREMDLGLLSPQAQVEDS

[4] = tested on: Receptor-type tyrosine-protein kinase FLT3 (Homo sapiens), P36888 [UNDEFINED MUTATION]; test: as §1; details: at 1 µM
[5] = molecular target: LIM domain kinase 2 (Homo sapiens) (UniProt P53671); test: Selectivity interaction (Kinase panel (Invitrogen)) EUB0000639a LIMK2; details: at 200 nM
Chain of LIM domain kinase 2 (Homo sapiens) (P53671 whole entry, looked up, the tested form may be a part): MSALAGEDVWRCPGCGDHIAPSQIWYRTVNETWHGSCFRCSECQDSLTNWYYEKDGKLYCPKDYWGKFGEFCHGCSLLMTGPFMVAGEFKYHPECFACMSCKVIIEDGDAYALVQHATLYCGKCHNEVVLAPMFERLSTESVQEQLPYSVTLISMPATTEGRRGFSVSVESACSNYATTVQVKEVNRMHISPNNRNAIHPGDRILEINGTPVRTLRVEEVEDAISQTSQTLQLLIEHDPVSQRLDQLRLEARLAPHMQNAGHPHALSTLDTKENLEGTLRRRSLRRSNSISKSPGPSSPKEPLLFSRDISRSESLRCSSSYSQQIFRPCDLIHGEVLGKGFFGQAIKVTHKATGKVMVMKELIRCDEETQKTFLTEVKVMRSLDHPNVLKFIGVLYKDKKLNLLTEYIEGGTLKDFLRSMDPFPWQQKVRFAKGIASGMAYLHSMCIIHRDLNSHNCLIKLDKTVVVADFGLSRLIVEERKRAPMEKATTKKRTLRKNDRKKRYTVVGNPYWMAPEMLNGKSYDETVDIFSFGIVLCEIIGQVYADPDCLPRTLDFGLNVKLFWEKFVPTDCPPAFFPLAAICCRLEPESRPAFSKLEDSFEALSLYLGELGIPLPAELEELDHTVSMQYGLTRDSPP

[6] = molecular target: T2, Serine/threonine-protein kinase D3 (Homo sapiens) (UniProt O94806); test: Selectivity interaction (ActivX KiNativ screen (kinase selectivity in THP-1 cell lysates)) EUB0000639a PRKD3; assay type: subcellular; details: lysate, at 0.2 µM
T2 sequence (whole entry): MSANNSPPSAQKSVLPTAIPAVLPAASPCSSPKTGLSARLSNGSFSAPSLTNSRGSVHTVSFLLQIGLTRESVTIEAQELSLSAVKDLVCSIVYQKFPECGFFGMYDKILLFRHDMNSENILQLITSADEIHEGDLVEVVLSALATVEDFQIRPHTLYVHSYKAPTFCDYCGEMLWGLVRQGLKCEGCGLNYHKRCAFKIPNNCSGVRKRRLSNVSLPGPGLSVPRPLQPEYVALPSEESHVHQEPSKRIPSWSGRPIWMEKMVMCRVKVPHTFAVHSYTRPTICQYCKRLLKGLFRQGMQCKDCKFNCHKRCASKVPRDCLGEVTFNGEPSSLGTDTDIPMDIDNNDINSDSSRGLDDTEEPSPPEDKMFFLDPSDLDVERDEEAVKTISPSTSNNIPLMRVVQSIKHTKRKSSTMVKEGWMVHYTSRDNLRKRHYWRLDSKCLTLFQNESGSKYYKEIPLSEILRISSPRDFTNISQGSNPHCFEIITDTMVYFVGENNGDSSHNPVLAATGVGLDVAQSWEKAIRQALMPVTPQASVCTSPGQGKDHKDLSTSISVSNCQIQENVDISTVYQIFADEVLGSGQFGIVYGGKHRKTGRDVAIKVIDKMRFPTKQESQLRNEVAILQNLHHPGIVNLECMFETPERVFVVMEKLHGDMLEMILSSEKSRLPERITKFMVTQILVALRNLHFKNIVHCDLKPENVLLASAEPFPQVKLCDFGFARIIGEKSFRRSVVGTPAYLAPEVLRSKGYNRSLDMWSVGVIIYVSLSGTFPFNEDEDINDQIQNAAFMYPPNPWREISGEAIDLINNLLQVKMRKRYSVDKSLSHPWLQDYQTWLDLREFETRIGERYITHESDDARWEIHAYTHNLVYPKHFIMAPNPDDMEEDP

[7] = molecular target: T3, Mitogen-activated protein kinase kinase kinase kinase 2 (Homo sapiens) (UniProt Q12851); test: Selectivity interaction (Kinase panel (Invitrogen)) EUB0000639a MAP4K2; details: at 200 nM
T3 sequence (whole entry): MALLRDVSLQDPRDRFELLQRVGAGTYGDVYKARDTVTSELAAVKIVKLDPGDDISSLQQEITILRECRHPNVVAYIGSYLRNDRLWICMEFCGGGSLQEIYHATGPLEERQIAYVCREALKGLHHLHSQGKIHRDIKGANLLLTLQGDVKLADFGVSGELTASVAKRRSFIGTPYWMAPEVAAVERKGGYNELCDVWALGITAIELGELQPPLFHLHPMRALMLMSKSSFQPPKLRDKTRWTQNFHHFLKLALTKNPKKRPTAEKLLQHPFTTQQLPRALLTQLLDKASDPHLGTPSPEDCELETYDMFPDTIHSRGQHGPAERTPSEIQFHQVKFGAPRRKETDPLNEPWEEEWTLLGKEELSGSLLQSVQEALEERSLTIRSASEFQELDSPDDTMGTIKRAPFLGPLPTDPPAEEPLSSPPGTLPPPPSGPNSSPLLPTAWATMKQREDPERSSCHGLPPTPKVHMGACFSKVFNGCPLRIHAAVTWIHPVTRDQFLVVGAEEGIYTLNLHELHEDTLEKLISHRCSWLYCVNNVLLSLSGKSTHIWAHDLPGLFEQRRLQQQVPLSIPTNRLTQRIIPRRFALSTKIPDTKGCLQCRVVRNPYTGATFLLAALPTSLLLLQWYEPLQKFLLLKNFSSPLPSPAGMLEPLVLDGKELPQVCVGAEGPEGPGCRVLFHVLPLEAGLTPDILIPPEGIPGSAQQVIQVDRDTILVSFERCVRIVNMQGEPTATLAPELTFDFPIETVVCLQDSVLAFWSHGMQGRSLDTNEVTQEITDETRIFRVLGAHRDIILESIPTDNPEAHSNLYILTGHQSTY

Chain of BMP-2-inducible protein kinase (Homo sapiens) (Q9NSY1 whole entry, looked up): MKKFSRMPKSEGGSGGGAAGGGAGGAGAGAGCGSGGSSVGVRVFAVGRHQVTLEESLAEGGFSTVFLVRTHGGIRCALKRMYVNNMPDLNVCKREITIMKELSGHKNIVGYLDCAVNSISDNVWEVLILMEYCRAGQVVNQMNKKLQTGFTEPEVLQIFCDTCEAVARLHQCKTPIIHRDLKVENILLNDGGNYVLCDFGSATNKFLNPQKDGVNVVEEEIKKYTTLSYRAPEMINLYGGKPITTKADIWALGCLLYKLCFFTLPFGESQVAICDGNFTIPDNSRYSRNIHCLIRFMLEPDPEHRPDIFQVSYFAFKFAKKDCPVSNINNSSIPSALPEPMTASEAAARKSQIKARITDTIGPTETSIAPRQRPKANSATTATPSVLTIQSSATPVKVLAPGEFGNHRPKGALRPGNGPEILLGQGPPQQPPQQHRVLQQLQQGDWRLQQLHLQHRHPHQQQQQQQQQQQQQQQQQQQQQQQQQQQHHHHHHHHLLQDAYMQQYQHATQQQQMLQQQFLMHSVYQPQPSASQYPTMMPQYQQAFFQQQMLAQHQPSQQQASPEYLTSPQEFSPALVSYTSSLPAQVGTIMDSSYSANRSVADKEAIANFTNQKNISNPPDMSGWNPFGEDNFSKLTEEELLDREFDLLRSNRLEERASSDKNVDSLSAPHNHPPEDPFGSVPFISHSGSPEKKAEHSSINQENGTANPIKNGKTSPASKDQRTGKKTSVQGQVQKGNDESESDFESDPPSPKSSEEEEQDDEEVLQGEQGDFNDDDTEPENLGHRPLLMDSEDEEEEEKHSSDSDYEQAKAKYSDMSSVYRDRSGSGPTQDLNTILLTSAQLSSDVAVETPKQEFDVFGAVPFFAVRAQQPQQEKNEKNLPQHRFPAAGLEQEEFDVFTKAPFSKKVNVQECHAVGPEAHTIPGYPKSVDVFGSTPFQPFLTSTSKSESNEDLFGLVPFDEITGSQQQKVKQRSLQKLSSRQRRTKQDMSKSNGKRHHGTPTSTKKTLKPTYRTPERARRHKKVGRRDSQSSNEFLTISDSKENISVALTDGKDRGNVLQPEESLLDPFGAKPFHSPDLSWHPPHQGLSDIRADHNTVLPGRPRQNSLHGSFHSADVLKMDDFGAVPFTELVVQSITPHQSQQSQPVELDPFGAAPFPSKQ
Chain of Epidermal growth factor receptor (P00533 whole entry): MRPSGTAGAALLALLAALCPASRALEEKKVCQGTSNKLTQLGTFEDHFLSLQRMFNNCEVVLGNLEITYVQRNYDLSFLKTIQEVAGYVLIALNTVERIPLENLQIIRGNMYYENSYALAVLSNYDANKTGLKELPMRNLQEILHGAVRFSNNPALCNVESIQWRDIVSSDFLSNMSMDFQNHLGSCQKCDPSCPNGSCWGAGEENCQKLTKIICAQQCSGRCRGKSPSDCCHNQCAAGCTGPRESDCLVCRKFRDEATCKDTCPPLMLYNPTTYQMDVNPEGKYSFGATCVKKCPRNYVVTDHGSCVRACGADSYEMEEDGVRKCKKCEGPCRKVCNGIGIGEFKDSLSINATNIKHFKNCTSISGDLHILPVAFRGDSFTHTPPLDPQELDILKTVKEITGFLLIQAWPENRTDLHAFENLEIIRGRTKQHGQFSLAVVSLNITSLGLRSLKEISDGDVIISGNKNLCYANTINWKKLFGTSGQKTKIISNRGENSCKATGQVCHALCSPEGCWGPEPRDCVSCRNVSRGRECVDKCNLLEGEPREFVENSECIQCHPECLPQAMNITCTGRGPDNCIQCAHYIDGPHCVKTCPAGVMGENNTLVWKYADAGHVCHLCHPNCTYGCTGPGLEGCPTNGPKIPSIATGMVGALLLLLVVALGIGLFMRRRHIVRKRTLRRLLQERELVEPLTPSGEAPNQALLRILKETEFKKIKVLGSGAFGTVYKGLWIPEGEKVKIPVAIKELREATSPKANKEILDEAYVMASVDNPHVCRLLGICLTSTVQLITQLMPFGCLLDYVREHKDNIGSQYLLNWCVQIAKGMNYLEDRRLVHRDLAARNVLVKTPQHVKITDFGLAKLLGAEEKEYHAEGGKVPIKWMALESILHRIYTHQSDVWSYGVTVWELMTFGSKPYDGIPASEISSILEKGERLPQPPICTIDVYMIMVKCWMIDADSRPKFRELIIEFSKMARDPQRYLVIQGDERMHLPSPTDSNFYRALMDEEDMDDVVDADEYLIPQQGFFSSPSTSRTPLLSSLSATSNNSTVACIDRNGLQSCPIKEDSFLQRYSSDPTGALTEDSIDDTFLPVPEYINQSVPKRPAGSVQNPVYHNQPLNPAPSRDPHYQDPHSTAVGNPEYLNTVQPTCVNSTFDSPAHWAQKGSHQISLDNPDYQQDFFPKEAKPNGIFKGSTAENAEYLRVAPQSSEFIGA

Cc1cc(-c2ccnc(Nc3cnn(C)c3)n2)ccc1CNC(=O)N1CC(OC(C)C)C1
% of control [1]: 18%

Cc1cc([C@@H](C)Nc2ccccc2C(=O)O)c2nc(N3CCOCC3)cc(=O)n2c1 [AZD-6482]
IC50 [2]: > 298 µM

CCc1ccccc1C(=O)Nc1n[nH]c2c(C)c(F)c(C3C(C#N)=C(C)N(C)C(C)=C3C#N)cc12 [BAY-3827]
% of control [3]: 2.5%
% of control [4]: 11%

CC[C@@H]1[C@H](F)C(=O)N[C@@H]1COc1nccc2cc(C(N)=O)c(OC)cc12 [ZIMLOVISERTIB]
% of inhibition [5]: 1.7%
% of inhibition [6]: -4.6%
% of inhibition [7]: 2.66%

From ChEMBL document CHEMBL5465560, “Selectivity Literature for EUbOPEN Chemogenomic Library” (2024)
